Measured values from EP0441252B1, “Alkaline phosphatase enzymes having improved specific activity for use in indicator reagents” (ABBOTT LABORATORIES, priority 1990, dated 1991).

Columns and labels:
Test in all cases: Kinetic constants (Km) of purified alkaline phosphatase
[1] = test system: O=[N+]([O-])c1ccc(OP(=O)(O)O)cc1; format: biochemical, E. coli; conditions: other: Table 1; substrate not given; pH 8.0; 25.0 °C
[2] = biological target: E. coli alkaline phosphatase variant pMA116, Lys^328 > Arg / Val^99 > Ala (Escherichia coli, UniProt P00634, form not given/K350R/V121A); conditions: Table 1; substrate not given
[3] = biological target: E. coli alkaline phosphatase variant pMA115, Asp^101 > Ser (Escherichia coli, UniProt P00634, D123S, form not given); conditions: Table 1; substrate not given
Chain of E. coli alkaline phosphatase variant pMA115, Asp^101 > Ser (P00634 22-471 D123S): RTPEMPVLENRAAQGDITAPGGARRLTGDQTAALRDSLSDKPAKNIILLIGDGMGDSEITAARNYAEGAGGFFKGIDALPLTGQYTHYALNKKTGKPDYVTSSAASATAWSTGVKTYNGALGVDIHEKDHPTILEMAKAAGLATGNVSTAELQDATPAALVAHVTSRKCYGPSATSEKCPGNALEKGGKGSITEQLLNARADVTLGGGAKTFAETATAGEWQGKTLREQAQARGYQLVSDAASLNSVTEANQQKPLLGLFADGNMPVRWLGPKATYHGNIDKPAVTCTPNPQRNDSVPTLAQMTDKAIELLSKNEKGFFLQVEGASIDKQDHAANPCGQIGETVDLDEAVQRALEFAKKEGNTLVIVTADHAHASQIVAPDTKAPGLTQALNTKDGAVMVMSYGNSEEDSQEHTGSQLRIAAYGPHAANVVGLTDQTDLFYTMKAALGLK

Chain of E. coli alkaline phosphatase variant pMA116, Lys^328 > Arg / Val^99 > Ala (P00634 22-471 K350R/V121A): as the sequence (P00634 22-471 D123S) above, with V100A, S102D, K329R counted along it

| Compound | Km [1] | Km [2] | Km [3] |
| --- | --- | --- | --- |
| E. coli alkaline phosphatase variant pMA110, Val^377 > Ala / Ser^415 > Gly (Escherichia coli K-12; S437G/V399A) | 23 µM | – | – |
| O=[N+]([O-])c1ccc(OP(=O)(O)O)cc1 [pNPP, p-nitrophenyl phosphate] | – | 74 µM | 56 µM |
